In the supplement of paper PMC10307832:

Tests used:
Test in all cases: relative viability (nuclei count vs DMSO), 5 days (fraction); higher = more cells survive
Bemcentinib + Navitoclax = compound: Nc1nc(Nc2ccc3c(c2)CC[C@@H](N2CCCC2)CC3)nn1-c1cc2c(nn1)-c1ccccc1CCC2 [Bemcentinib] + CC1(C)CCC(c2ccc(Cl)cc2)=C(CN2CCN(c3ccc(C(=O)NS(=O)(=O)c4ccc(N[C@H](CCN5CCOCC5)CSc5ccccc5)c(S(=O)(=O)C(F)(F)F)c4)cc3)CC2)C1 [Navitoclax] (partner 0.5 µM)
Summary of the method: (§1)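 Five library-drug doses in √10 steps were combined with a fixed anchor-drug dose, or a single drug was given alone, by pin tool to lung cancer cell lines in 1536-well plates the day after seeding. Nuclei were stained and counted after 5 days. Relative viability is the nuclei count in treated wells over that in vehicle wells, taken as the median of duplicate plates.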

[1] = compound: CC1=CC=C(C=C1)C(=O)CN2C3=C(CCCC3)SC2=N [Pifithrin_alpha] + C[C@@H](Oc1cc(-c2cnn(C3CCNCC3)c2)cnc1N)c1c(Cl)ccc(F)c1Cl [Crizotinib] (partner 1 µM)
Summary of the method: as §1

Bemcentinib + Olaparib = compound: Nc1nc(Nc2ccc3c(c2)CC[C@@H](N2CCCC2)CC3)nn1-c1cc2c(nn1)-c1ccccc1CCC2 [Bemcentinib] + O=C(c1cc(Cc2n[nH]c(=O)c3ccccc23)ccc1F)N1CCN(C(=O)C2CC2)CC1 [Olaparib] (partner 8 µM)
Summary of the method: as §1

[2] = compound: CC1=CC=C(C=C1)C(=O)CN2C3=C(CCCC3)SC2=N [Pifithrin_alpha] + O=C(CCCCCCC(=O)Nc1ccccc1)NO [Vorinostat] (partner 1 µM)
Summary of the method: as §1

| Cell Line | relative viability (Bemcentinib + Navitoclax; first compound 0.04 µM) | relative viability (Bemcentinib + Navitoclax; first compound 0.1265 µM) | relative viability (Bemcentinib + Navitoclax; first compound 0.4 µM) | relative viability (Bemcentinib + Navitoclax; first compound 1.265 µM) | relative viability (Bemcentinib + Navitoclax; first compound 4 µM) | relative viability ([1]; first compound 1 µM) | relative viability ([1]; first compound 3.162 µM) | relative viability ([1]; first compound 10 µM) | relative viability ([1]; first compound 31.62 µM) | relative viability ([1]; first compound 100 µM) | relative viability (Bemcentinib + Olaparib; first compound 0.04 µM) | relative viability (Bemcentinib + Olaparib; first compound 0.1265 µM) | relative viability (Bemcentinib + Olaparib; first compound 0.4 µM) | relative viability (Bemcentinib + Olaparib; first compound 1.265 µM) | relative viability (Bemcentinib + Olaparib; first compound 4 µM) | relative viability ([2]; first compound 1 µM) | relative viability ([2]; first compound 3.162 µM) | relative viability ([2]; first compound 10 µM) | relative viability ([2]; first compound 31.62 µM) | relative viability ([2]; first compound 100 µM) |
| --- | --- | --- | --- | --- | --- | --- | --- | --- | --- | --- | --- | --- | --- | --- | --- | --- | --- | --- | --- | --- |
| NCI-H1651 | 0.966 | 1.16 | 1.35 | 1.14 | 1.24 | 0.942 | 0.924 | 0.934 | 0.835 | 0.959 | 0.201 | 0.204 | 0.187 | 0.189 | 0.191 | 0.148 | 0.553 | 0.476 | 0.533 | 0.563 |
| NCI-H23 | 0.779 | 0.869 | 1.08 | 0.813 | 0.778 | 0.591 | 0.596 | 0.432 | 0.426 | 0.506 | 0.246 | 0.338 | 0.381 | 0.308 | 0.298 | 0.457 | 0.4 | 0.604 | 0.343 | 0.584 |
| PC-14 | 1.07 | 1.12 | 1.16 | 1.05 | 0.997 | 0.998 | 0.827 | 0.741 | 0.699 | 0.703 | 0.279 | 0.433 | 0.235 | 0.225 | 0.187 | 0.626 | 0.77 | 0.802 | 0.414 | 0.625 |
| H3255 | 0.397 | 0.581 | 0.67 | 0.325 | 0.506 | 0.762 | 0.948 | 0.826 | 0.469 | 0.656 | 0.533 | 0.589 | 0.537 | 0.599 | 0.491 | 0.682 | 0.818 | 0.788 | 0.497 | 0.703 |
